In patent US20210252045A1, “Method for inactivating and removing disease-related levels of sulfane sulfur from affected biological tissues with special relevance to Covid-19 virus infection” (priority 2019, published 2021):

Tests used:
[1] = test system: Rhinovirus of the common cold; assay: Ingesting sulfite at first symptoms of the common cold (inventor's self-administration); type: in vivo; conditions: oral, 250 mg every 4 hours for 24 hours, started at first symptoms (within 48 hours); the inventor themself
Description: It appears to be important that this be started within 48 hours of first appearance of the symptoms although data is lacking on using the agent later in the course of the infection. The stated quantities are effective but might be refined. The total quantity in the above example is equivalent to drinking 4 bottles of some wines or ingesting 500 gm of certain dried fruits. Application of this example to Covid 19 would be a first TREATMENT for this disease.

[2] = sulfur dioxide gas in water at pH above 3; cited from earlier work

Row | SMILES | course of common cold symptoms after ingestion [1] | pKa2 [2]
1 | O=S([O-])S(=O)(=O)[O-].[K+].[K+] [K. metabisulfite] | symptoms clear without progressing to a full cold | –
2 | O=S(O)O [sulfurous acid] | – | ~7
